Source: patent publication US11478526B2, “Methods of reducing neuroinflammation or toxicity induced by amyloid beta (abeta) using glucocorticoid induced leucine zipper (GILZ) analog peptides” (INDIANA UNIVERSITY RESEARCH AND TECHNOLOGY CORPORATION, priority 2016, dated 2022)
Where two headings read alike, the source gives them in different places.

Legend:
[1] = system: LPS induced neuroinflammation; assay: LPS induced neuroinflammation: cytokine ELISA of brain homogenates; assay type: in vivo, mouse; conditions: 25 mg/kg i.v. alternate days, day 7
Description: (§1) Animals and lipopolysaccharide induced neuroinflammation: Male C57/6J mice weighing 32 to 37 grams were housed five per cage at a temperature of 22±2° C. with 12 hour light/12 hour dark cycles with free access to laboratory food and water. Lipopolysaccharides (LPS) from Escherichia coli 026:B6, =10,000 EU/mg, purified by phenol extraction was purchased from Sigma (Sigma Aldrich, Mo., USA). The mice were randomly divided into seven groups: LPS, LPS+GA-1 or GA-2 or CP-1 or CP-2 or CP-3 or TAT. The LPS was administered intraperitoneally at […] in 100 μl of sterile saline followed by corn oil in the morning daily for six days. The GA or CP was administered intravenously at 25 mg/kg in 100 μl of sterile saline on alternate days. Additional control group included mice receiving saline alone. All animals were sacrificed on day 7.
Enzyme linked immunosorbent assay for cytokines: Frozen brain tissue was homogenized in RIPA lysis buffer (50 mmol/LTris-HCl, pH 6.8, 150 mmol/L NaCl, 5 mmol/L EDTA, 0.5% sodium deoxycholate, 0.5% NP-40) supplemented with a cocktail containing protease and phosphatase inhibitors (Chemicon, Millipore) on ice and then centrifuged at 16,000×g for 30 min. Supernatant was stored at −80° C. until further analysis. […]

[2] = system: Phospho-NF-κB p65 (Ser536); assay: LPS induced neuroinflammation: Phospho-NF-κB p65 ELISA of brain homogenates; assay type: in vivo, mouse; conditions: 25 mg/kg i.v. alternate days, day 7
Description: as §1, with “All animals were sacrificed on day 7.” left out
NF-κB assay: Brain homogenates processed as above were assessed by the Cell Signaling Technology PathScan® Phospho-NF-κB p65 (Ser^536) Sandwich ELISA kit following manufacturer's protocol (Cell Signaling Technology, Boston, Mass.). […] After extensive washing, the captured phospho-NF-κB p65 protein was detected by incubating with horse radish peroxidase (HRP) conjugated NF-κB p65 rabbit mAb followed by washing and color development using the TMB substrate. Absorbance at 450 nm was measured using a microplate reader (Model 680; Bio-Rad Laboratories, Hercules, Calif., USA). […]

U373 cells = assay type: cell-based, human
Description: Lactate dehydrogenase (LDH) assay: To detect direct GA-induced cell lysis we performed LDH release assays (Roche Molecular Diagnostics). […] Approximately 5×10^4 U373 cells/well were cultured in 96-well plates in the presence of increasing concentrations of individual GA or control peptide from 0.5 μM to 500 μM. Cells treated with 2% triton-X 100 (Sigma Aldrich, St. Louis, Mo.) for 10 minutes served as positive control. Untreated cells served as controls for spontaneous LDH-release. Specific LDH-release was calculated according to the following formula: LDH-release %=100*(GA or control peptide treated cells—untreated cells)/(positive control-untreated cells). The IC50 values were extrapolated by logarithmic estimation. The LD50 in mg/kg was predicted using the formula, Log (LD50)=0.506×(log IC50)+0.475.
Effects of PGA on membrane integrity and apoptosis: The top five PGA were covalently synthesized with the cell penetrating TAT (transcriptional transactivation) peptide to facilitate intracellular delivery (Genescript, N.J.). Membrane integrity of U373 microglial cells exposed to increasing concentration of each PGA from 0.5 μm to 500 μM was assessed by the leakage of intracellular lactate dehydrogenase (LDH) into culture medium (Roche, Ind.).

[3] = Example 9, PGA synthesized with TAT, read-out: IC50 of LDH release extrapolated from regression analysis
[4] = concentration stated for use in HFNC cultures, Example 11, read-out: IC50 concentration

Substance | IFN-γ in brain tissue [1] [pg/mL] | IL-6 in brain tissue homogenates [1] [pg/mL] | IL-12 in brain homogenates [1] [pg/mL] | TNF-α in brain homogenates [1] [pg/mL] | absorbance suggestive of activated p65 in brain protein extract [2] | IC50 (U373 cells; [3]) [µM] | IC50 (U373 cells; [4]) [µM]
Ac-EPAPESPQV-NH2 [GA-2] | 3125.1 ± 815 | 19.6 ± 0.84 | 101.3 ± 15.9 | 1199.2 ± 356.4 | 0.12+/−0.07 | – | –
Ac-EPAPESPQV-NH2 [PGA-4] | – | – | – | – | – | 1.5 | 102
Ac-EPAPLAPYG-NH2 [GA-1] | 2863.2 ± 697.5 | 18.7 ± 2 | 92.0 ± 9.3 | 1500.1 ± 476 | 0.098+/−0.03 | – | –
Ac-EPAPLAPYG-NH2 [PGA-2] | – | – | – | – | – | 1.95 | 169
